Source: patent publication US12077503B2, “Substituted cyclic amides and their use as herbicides” (FMC CORPORATION, priority 2015, dated 2024)
Read-outs that look alike come from different tables or passages of the source.

How the values were obtained:
Type in all cases: in vivo
[1] = test system: ragweed (common ragweed, Ambrosia elatior); assay: Test A preemergence; conditions: Ambrosia artemisiifolia, pre-emergence, 240 h, read-out: Plant response rating, Ragweed; for pest or weed control at 125 g/ha: 125 g ai/ha, Preemergence, visual injury after approximately 10 d, 0 to 100 scale where 0 is no effect and 100 is complete control; for pest or weed control at 500 g/ha: 500 g ai/ha, preemergence, 0 to 100 scale, 0 = no effect, 100 = complete control
Summary of the method: (§1)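 Each rating is a visual injury score from 0 to 100 given about 10 d after treatment, judged against untreated controls kept alongside in the greenhouse. In loam soil–sand blend, seeds got a preemergence directed soil spray, while postemergence plants were 2 to 10 cm tall at spraying.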

[2] = test system: Galium (catchweed bedstraw, Galium aparine); assay: Test A postemergence; conditions: Galium, post-emergence, 240 h, read-out: Plant response rating, Galium; for pest or weed control at 125 g/ha: 125 g ai/ha, visual rating after approx. 10 d; for pest or weed control at 500 g/ha: 500 g ai/ha
Summary of the method: as §1

Kochia (Kochia scoparia) = assay: Test A postemergence; conditions: Bassia scoparia, post-emergence, 240 h, read-out: Plant response rating, Kochia; for pest or weed control at 125 g/ha: 125 g ai/ha, visual rating after approx. 10 d; for pest or weed control at 500 g/ha: 500 g ai/ha
Summary of the method: as §1

[3] = test system: barnyardgrass (Echinochloa crus-galli); assay: Test A postemergence; conditions: Echinochloa crus-galli, post-emergence, 240 h, read-out: Plant response rating, Barnyardgrass; for pest or weed control at 125 g/ha: 125 g ai/ha, postemergence, visual rating after approx. 10 d, 0 to 100 scale (0 no effect, 100 complete control); for pest or weed control at 500 g/ha: Postemergence, 500 g ai/ha, 0 to 100 scale where 0 is no effect and 100 is complete control
Summary of the method: as §1

[4] = test system: blackgrass (Alopecurus myosuroides); assay: Test A postemergence; conditions: Alopecurus myosuroides, post-emergence, 240 h, read-out: Plant response rating, Blackgrass; for pest or weed control at 125 g/ha: 125 g ai/ha, postemergence, visual rating after approx. 10 d, 0 to 100 scale (0 no effect, 100 complete control); for pest or weed control at 500 g/ha: Postemergence, 500 g ai/ha, 0 to 100 scale where 0 is no effect and 100 is complete control
Summary of the method: as §1

corn (Zea mays) = assay: Test A postemergence; conditions: Zea mays, post-emergence, 240 h; for Corn plant response rating (crop injury, 0 = no effect, 100 = complete kill) at 125 g/ha: 125 g ai/ha, postemergence, visual rating after approx. 10 d, 0 to 100 scale (0 no effect, 100 complete control); for Corn plant response rating (crop injury, 0 = no effect, 100 = complete kill) at 500 g/ha: Postemergence, 500 g ai/ha, 0 to 100 scale where 0 is no effect and 100 is complete control
Summary of the method: as §1

[5] = test system: giant foxtail (Setaria faberii); assay: Test A postemergence; conditions: Setaria faberi, post-emergence, 240 h, read-out: Plant response rating, Foxtail, Giant; for pest or weed control at 125 g/ha: 125 g ai/ha, visual rating after approx. 10 d; for pest or weed control at 500 g/ha: 500 g ai/ha
Summary of the method: as §1

[6] = test system: pigweed (Amaranthus retroflexus); assay: Test A postemergence; conditions: Amaranthus retroflexus, post-emergence, 240 h, read-out: Plant response rating, Pigweed; for pest or weed control at 125 g/ha: 125 g ai/ha, visual rating after approx. 10 d; for pest or weed control at 500 g/ha: 500 g ai/ha
Summary of the method: as §1

[7] = test system: ragweed (common ragweed, Ambrosia elatior); assay: Test A postemergence; conditions: Ambrosia artemisiifolia, post-emergence, 240 h, read-out: Plant response rating, Ragweed; for pest or weed control at 125 g/ha: 125 g ai/ha, visual rating after approx. 10 d; for pest or weed control at 500 g/ha: 500 g ai/ha
Summary of the method: as §1

[8] = test system: ryegrass, Italian (Italian ryegrass, Lolium multiflorum); assay: Test A postemergence; conditions: Lolium multiflorum, post-emergence, 240 h, read-out: Plant response rating, Ryegrass, Italian; for pest or weed control at 125 g/ha: 125 g ai/ha, visual rating after approx. 10 d; for pest or weed control at 500 g/ha: 500 g ai/ha
Summary of the method: as §1

[9] = test system: wheat (Triticum aestivum); assay: Test A postemergence; conditions: Triticum aestivum, post-emergence, 240 h, read-out: Plant response rating, Wheat; for plant injury at 125 g/ha: 125 g ai/ha, visual rating after approx. 10 d; for plant injury at 500 g/ha: 500 g ai/ha
Summary of the method: as §1

[10] = test system: barnyardgrass (Echinochloa crus-galli); assay: Test B flooded paddy test; conditions: Flood, 250 g ai/ha; 0 to 100 scale where 0 is no effect and 100 is complete control; 13 to 15 d
Summary of the method: (§2)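 Response scored visually against untreated controls, 0 = no effect and 100 = complete control, 13–15 d after treatment in the greenhouse. Compounds added to paddy water held 3 cm above soil surface. Treatment given at 2-leaf stage.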

[11] = test system: ducksalad (Heteranthera limosa); assay: Test B flooded paddy test; conditions: Flood, 250 g ai/ha; 0 to 100 scale where 0 is no effect and 100 is complete control; 13 to 15 d
Summary of the method: as §2

rice (Oryra sativa) = assay: Test B flooded paddy test; conditions: Flood, 250 g ai/ha; 0 to 100 scale where 0 is no effect and 100 is complete control; 13 to 15 d
Summary of the method: as §2

[12] = test system: sedge, umbrella (small-flower umbrella sedge, Cyperus difformis); assay: Test B flooded paddy test; conditions: Flood, 250 g ai/ha; 0 to 100 scale where 0 is no effect and 100 is complete control; 13 to 15 d
Summary of the method: as §2

[13] = postemergence, 0 to 100 scale (0 no effect, 100 complete control)
[14] = Postemergence, 0 to 100 scale where 0 is no effect and 100 is complete control
[15] = postemergence, visual injury, 0 to 100 scale (0 no effect, 100 complete control), approx. 10 d

CN1C[C@H](c2ccc(C(F)(F)F)cc2)[C@@H](C(=O)Nc2ccccc2F)C1=O [Compound 622, (3S,4S)—N-(2-fluorophenyl)-1-methyl-2-oxo-4-[4-(trifluoromethyl)phenyl]-3-pyrrolidinecarboxamide]
pest or weed control at 125 g/ha [1]: 60% | pest or weed control at 500 g/ha [1]: 60% | pest or weed control at 125 g/ha [2, 13]: 60% | pest or weed control at 500 g/ha [2, 14]: 70% | pest or weed control at 125 g/ha (Kochia (Kochia scoparia); [13]): 40% | pest or weed control at 500 g/ha (Kochia (Kochia scoparia); [14]): 60% | pest or weed control at 125 g/ha [3]: 90% | pest or weed control at 500 g/ha [3]: 90% | pest or weed control at 125 g/ha [4]: 30% | pest or weed control at 500 g/ha [4]: 60% | Corn plant response rating (crop injury, 0 = no effect, 100 = complete kill) at 125 g/ha (corn (Zea mays)): 50% | Corn plant response rating (crop injury, 0 = no effect, 100 = complete kill) at 500 g/ha (corn (Zea mays)): 70% | pest or weed control at 125 g/ha [5, 13]: 80% | pest or weed control at 500 g/ha [5, 14]: 90% | pest or weed control at 125 g/ha [6, 13]: 40% | pest or weed control at 500 g/ha [6, 14]: 50% | pest or weed control at 125 g/ha [7, 13]: 0% | pest or weed control at 500 g/ha [7, 14]: 40% | pest or weed control at 125 g/ha [8, 13]: 30% | pest or weed control at 500 g/ha [8, 14]: 50% | plant injury at 125 g/ha [9, 13]: 30% | plant injury at 500 g/ha [9, 14]: 70% | Plant response rating, Barnyardgrass [10]: 70 | Plant response rating, Ducksalad [11]: 100 | Plant response rating, Rice (rice (Oryra sativa)): 0 | Plant response rating, Sedge, Umbrella [12]: 0

CN1C[C@H](c2ccc(F)c(F)c2)[C@@H](C(=O)Nc2cccc(F)c2F)C1=O [Compound 639, (3S,4S)—N-(2,3-difluorophenyl)-4-(3,4-difluorophenyl)-1-methyl-2-oxo-3-pyrrolidinecarboxamide]
pest or weed control at 125 g/ha [1]: 50% | pest or weed control at 500 g/ha [1]: 70% | pest or weed control at 125 g/ha [2, 13]: 40% | pest or weed control at 500 g/ha [2, 15]: 50% | pest or weed control at 125 g/ha (Kochia (Kochia scoparia); [13]): 60% | pest or weed control at 500 g/ha (Kochia (Kochia scoparia); [15]): 70% | pest or weed control at 125 g/ha [3]: 90% | pest or weed control at 500 g/ha [3]: 90% | pest or weed control at 125 g/ha [4]: 60% | pest or weed control at 500 g/ha [4]: 60% | Corn plant response rating (crop injury, 0 = no effect, 100 = complete kill) at 125 g/ha (corn (Zea mays)): 40% | Corn plant response rating (crop injury, 0 = no effect, 100 = complete kill) at 500 g/ha (corn (Zea mays)): 80% | pest or weed control at 125 g/ha [5, 13]: 90% | pest or weed control at 500 g/ha [5, 15]: 90% | pest or weed control at 125 g/ha [6, 13]: 20% | pest or weed control at 500 g/ha [6, 15]: 50% | pest or weed control at 125 g/ha [7, 13]: 0% | pest or weed control at 500 g/ha [7, 15]: 30% | pest or weed control at 125 g/ha [8, 13]: 30% | pest or weed control at 500 g/ha [8, 15]: 50% | plant injury at 125 g/ha [9, 13]: 60% | plant injury at 500 g/ha [9, 15]: 60% | Plant response rating, Barnyardgrass [10]: 80 | Plant response rating, Ducksalad [11]: 100 | Plant response rating, Rice (rice (Oryra sativa)): 0 | Plant response rating, Sedge, Umbrella [12]: 0
